Reference: patent US4724233A, “Therapeutical application of phosphonylmethoxyalkyl adenines” (Stichting Rega VZW, priority 1985, dated 1988)
Converted amounts (≈) assume the structure as drawn. “Also recorded” adds a separate entry of the source. Where two headings read alike, the source gives them in different places.

What was measured:
Herpes simplex I (KOS) = assay: inhibition of cytopathic effect of herpes simplex 1 (KOS); type: cell-based, herpes simplex virus type 1; conditions: PRK cells; for EC50: Human alphaherpesvirus 1, read-out: MIC50
Herpes simplex 2 (G) = assay: inhibition of cytopathic effect of herpes simplex 2 (G); type: cell-based, herpes simplex virus type 2; conditions: PRK cells; for EC50: Human alphaherpesvirus 2, PRK, read-out: MIC50
HSV-1 (strain) McIntyre = assay: inhibition of cytopathic effect of HSV-1 strain McIntyre; type: cell-based, herpes simplex virus type 1; conditions: Table 4, HSV-1 McIntyre, PRK cells; for EC50: Human alphaherpesvirus 1, read-out: MIC50
HSV-1 (strain) F = assay: inhibition of cytopathic effect of HSV-1 strain F; type: cell-based, herpes simplex virus type 1; conditions: Table 4, HSV-1 F, PRK cells; for EC50: Human alphaherpesvirus 1, read-out: MIC50
[1] = test system: HSV-1 (strain) TK^- B2006; assay: inhibition of cytopathic effect of HSV-1 TK- strain B2006; type: cell-based, herpes simplex virus type 1; conditions: for EC50: Human alphaherpesvirus 1, PRK, read-out: MIC50
[2] = test system: HSV-1 (strain) TK^- C1101; assay: inhibition of cytopathic effect of HSV-1 TK- strain C1101; type: cell-based, herpes simplex virus type 1; conditions: for EC50: Human alphaherpesvirus 1, PRK, read-out: MIC50
HSV-2 (strain) 196 = assay: inhibition of cytopathic effect of HSV-2 strain 196; type: cell-based, herpes simplex virus type 2; conditions: Table 4, HSV-2 196, PRK cells; for EC50: Human alphaherpesvirus 2, read-out: MIC50
HSV-2 (strain) Lyons = assay: inhibition of cytopathic effect of HSV-2 strain Lyons; type: cell-based, herpes simplex virus type 2; conditions: Table 4, HSV-2 Lyons, PRK cells; for EC50: Human alphaherpesvirus 2, read-out: MIC50
VZV (strain) YS = assay: microbe, parasite or virus in culture; type: cell-based, varicella-zoster virus; conditions: Human alphaherpesvirus 3, Table 5, HEL cells, read-out: MIC50
VZV (strain) OKa = assay: microbe, parasite or virus in culture; type: cell-based, varicella-zoster virus; conditions: Human alphaherpesvirus 3, HEL, read-out: MIC50
VZV (strain) TK^- YSR = assay: microbe, parasite or virus in culture; type: cell-based, varicella-zoster virus; conditions: Human alphaherpesvirus 3, HEL, read-out: MIC50
VZV (strain) TK^- 07-1 = assay: microbe, parasite or virus in culture; type: cell-based, varicella-zoster virus; conditions: Human alphaherpesvirus 3, HEL, read-out: MIC50
CMV (strain) Davis = assay: inhibition of CMV strain Davis in HEL cells; type: cell-based, cytomegalovirus; conditions: Human betaherpesvirus 5, Table 5, read-out: MIC50
CMV (strain) AD 169 = assay: inhibition of CMV strain AD 169 in HEL cells; type: cell-based, cytomegalovirus; conditions: Human betaherpesvirus 5; Table 5; CMV AD 169, HEL cells; read-out: MIC50
TK^- herpes viruses = conditions: Prusoff et al.; cited from earlier work
Reovirus = assay: inhibition of cytopathic effect of reovirus; type: cell-based; conditions: Table 3, Vero B cells
Parainfluenza 3 = assay: inhibition of cytopathic effect of parainfluenza 3; type: cell-based; conditions: Table 3, Vero B cells
Sindbis = assay: inhibition of cytopathic effect of Sindbis; type: cell-based; conditions: Table 3, Vero B cells
Coxsackie B4 = assay: inhibition of cytopathic effect of Coxsackie B4; type: cell-based; conditions: Table 3, Vero B, HeLa cells
Polio 1 = assay: microbe, parasite or virus in culture; type: cell-based
Measles = assay: inhibition of cytopathic effect of measles; type: cell-based; conditions: Table 3, Vero Flow cells
Vesicular stomatitis = assay: microbe, parasite or virus in culture; type: cell-based
Vaccinia = assay: microbe, parasite or virus in culture; type: cell-based
Moloney sarcoma = assay: inhibition of Moloney sarcoma virus; type: cell-based, Moloney mouse sarcoma virus; conditions: Table 3, MO cells
[3] = test system: herpes simplex virus type 1 (HSV-1) (strain KOS); type: cell-based; conditions: PRK cells
vaccinia virus (VV) = type: cell-based; conditions: PRK cells, average of two determinations
DNA-viruses = type: cell-based
in vitro = conditions: rabbit, prk cells
[4] = antimetabolic activity: incorporation of 3H-labeled precursors into primary rabbit kidney cells; conditions: rabbit, prk cells
PRK cells [5] = conditions: 72 h
PRK cells [6] = assay: antimetabolic activity: incorporation of 3H-labeled precursors into primary rabbit kidney cells
[7] = 48 h, 10 μg/ml (value in parentheses)

Question: For `O=c1[nH]c(=O)n([C@H]2C[C@H](O)[C@@H](CO)O2)cc1/C=C/Br` [BVDU, (E)-5-(2-bromovinyl)-2'-deoxyuridine, reference compound], which EC50 (Herpes simplex I (KOS); Table 4, HSV-1 KOS) is on record?
Answer: 0.02 µg/mL (≈ 0.06 µM)

Question: And the EC50 (Herpes simplex 2 (G); Table 4, HSV-2 G)?
Answer: 2 µg/mL (≈ 6 µM)

Question: What about the EC50 (HSV-1 (strain) McIntyre) of the same molecule?
Answer: 0.02 µg/mL (≈ 0.06 µM)

Question: What about the EC50 (HSV-1 (strain) F) of the same molecule?
Answer: 0.02 µg/mL (≈ 0.06 µM)

Question: And the EC50 [1]?
Answer: > 200 µg/mL

Question: And the EC50 [2]?
Answer: 70 µg/mL (≈ 210 µM)

Question: And the EC50 (HSV-2 (strain) 196)?
Answer: 70 µg/mL (≈ 210 µM)

Question: And the EC50 (HSV-2 (strain) Lyons)?
Answer: 7 µg/mL (≈ 21 µM)

Question: What about the EC50 (VZV (strain) YS) of the same molecule?
Answer: 0.006 µg/mL (≈ 0.018 µM)

Question: What about the EC50 (VZV (strain) OKa) of the same molecule?
Answer: 0.007 µg/mL (≈ 0.021 µM)

Question: What about the EC50 (VZV (strain) TK^- YSR) of the same molecule?
Answer: > 400 µg/mL

Question: And the EC50 (VZV (strain) TK^- 07-1)?
Answer: > 400 µg/mL

Question: What about the EC50 (CMV (strain) Davis) of the same molecule?
Answer: 300 µg/mL (≈ 901 µM)

Question: What about the EC50 (CMV (strain) AD 169) of the same molecule?
Answer: 200 µg/mL (≈ 600 µM)

Question: And the “activity against TK^- herpes viruses (in words)” value (TK^- herpes viruses)?
Answer: inactive

Question: Which results are given for `Nc1ncnc2c1ncn2C[C@@H](CO)OCP(=O)(O)O` [No. 4, (S)-9-(3-hydroxy-2-phosphonylmethoxypropyl)adenine]?
Answer: EC50 (Reovirus; Reovirus sp., read-out: MIC50): > 40 µg/mL; EC50 (Parainfluenza 3; read-out: MIC50): > 200 µg/mL; EC50 (Sindbis; read-out: MIC50): > 400 µg/mL; EC50 (Coxsackie B4; Enterovirus B, B4, read-out: MIC50): > 400 µg/mL; EC50 (Polio 1; HeLa, read-out: MIC50): > 400 µg/mL; EC50 (Measles; Measles morbillivirus, read-out: MIC50): > 40 µg/mL; EC50 (Vesicular stomatitis; read-out: MIC50): > 400 µg/mL; EC50 (Vaccinia; Orthopoxvirus vaccinia, PRK, read-out: MIC50): 0.3 to 1.5 µg/mL (≈ 0.989 to 4.95 µM); EC50 (Herpes simplex I (KOS); Table 3): 1 µg/mL (≈ 3.3 µM); EC50 (Herpes simplex 2 (G); Table 3): 1 to 3 µg/mL (≈ 3.3 to 9.89 µM); EC50 (Herpes simplex 2 (G); Table 4, HSV-2 G): 1 to 3 µg/mL (≈ 3.3 to 9.89 µM); EC50 (Moloney sarcoma; Mus musculus, read-out: MIC50): 1 µg/mL (≈ 3.3 µM); EC50 (HSV-1 (strain) McIntyre): 1 to 3 µg/mL (≈ 3.3 to 9.89 µM); EC50 (HSV-1 (strain) F): 1 to 3 µg/mL (≈ 3.3 to 9.89 µM); EC50 [1]: 1 µg/mL (≈ 3.3 µM); EC50 [2]: 1 µg/mL (≈ 3.3 µM); EC50 (HSV-2 (strain) 196): 1 to 3 µg/mL (≈ 3.3 to 9.89 µM); EC50 (HSV-2 (strain) Lyons): 1 µg/mL (≈ 3.3 µM); EC50 (VZV (strain) YS): 0.004 µg/mL (≈ 0.0132 µM); EC50 (VZV (strain) OKa): 0.004 µg/mL (≈ 0.0132 µM); EC50 (VZV (strain) TK^- YSR): 0.004 µg/mL (≈ 0.0132 µM); EC50 (VZV (strain) TK^- 07-1): 0.004 µg/mL (≈ 0.0132 µM); EC50 (CMV (strain) Davis): 0.3 µg/mL (≈ 0.989 µM); EC50 (CMV (strain) AD 169): 0.3 µg/mL (≈ 0.989 µM); Titer of HSV-1 ([3]; 24 h, 100 μg/ml): < 1.3 log10 PFU/ml; Titer of HSV-1 [3, 7]: 4.3 log10 PFU/ml; Titer of HSV-1 ([3]; 48 h, 100 μg/ml): < 1.3 log10 PFU/ml; Titer of VV (vaccinia virus (VV); [7]): < 1.3 log10 PFU/ml; Titer of VV (vaccinia virus (VV); 48 h, 100 μg/ml): < 1.3 log10 PFU/ml; antiviral activity (in words) (DNA-viruses): the most effective one; also recorded: best antiviral activity; MCC at 72 h (in vitro): ≥ 200 µg/mL; IC50 ([4]; ID50 Leu incorporation, (3H-4,5)Leu): > 400 µg/mL; IC50 ([4]; ID50 Urd incorporation, (3H-5)Urd): > 400 µg/mL; IC50 ([4]; ID50 dThd incorporation, (3H-methyl) dThd): 297 µg/mL (≈ 980 µM); IC50 ([4]; ID50 dUrd incorporation, (3H-1',2')dUrd): 74 µg/mL (≈ 244 µM)

Question: With “(RS)-9-(2(3)hydroxy-3(2)-phosphonylmethoxypropyl)adenine [No. 1]” as the molecule, how does the MIC50 (Reovirus) read?
Answer: > 400 µg/mL

Question: And the MIC50 (Parainfluenza 3)?
Answer: > 200 µg/mL

Question: What about the MIC50 (Sindbis) of the same molecule?
Answer: > 400 µg/mL

Question: And the MIC50 (Coxsackie B4)?
Answer: > 400 µg/mL

Question: And the MIC50 (Polio 1; Table 3, HeLa cells)?
Answer: > 400 µg/mL

Question: And the MIC50 (Measles)?
Answer: > 400 µg/mL

Question: And the MIC50 (Vesicular stomatitis; Table 3, HeLa, PRK cells)?
Answer: > 400 µg/mL

Question: What about the MIC50 (Vaccinia; Table 3, PRK cells) of the same molecule?
Answer: 0.7 to 3.0 µg/mL

Question: What about the MIC50 (Herpes simplex I (KOS); Table 3) of the same molecule?
Answer: 20 to 30 µg/mL

Question: What about the MIC50 (Herpes simplex I (KOS); Table 4, HSV-1 KOS) of the same molecule?
Answer: 20 to 30 µg/mL

Question: And the MIC50 (Herpes simplex 2 (G); Table 3)?
Answer: 7 to 20 µg/mL

Question: What about the MIC50 (Herpes simplex 2 (G); Table 4, HSV-2 G) of the same molecule?
Answer: 7 to 20 µg/mL

Question: What about the MIC50 (Moloney sarcoma) of the same molecule?
Answer: > 60 µg/mL

Question: What about the MIC50 (HSV-1 (strain) McIntyre) of the same molecule?
Answer: 30 µg/mL

Question: What about the MIC50 (HSV-1 (strain) F) of the same molecule?
Answer: 15 to 30 µg/mL

Question: What about the MIC50 ([1]; Table 4, HSV-1 TK^- B2006, PRK cells) of the same molecule?
Answer: 7 µg/mL

Question: And the MIC50 ([2]; Table 4, HSV-1 TK^- C1101, PRK cells)?
Answer: 7 to 20 µg/mL

Question: What about the MIC50 (HSV-2 (strain) 196) of the same molecule?
Answer: 15 to 70 µg/mL

Question: And the MIC50 (HSV-2 (strain) Lyons)?
Answer: 7 to 15 µg/mL

Question: And the “Titer of HSV-1” value ([3]; 1 h, 100 μg/ml)?
Answer: < 1.3 log10 PFU/ml

Question: And the “Titer of HSV-1” value ([3]; 24 h, 100 μg/ml)?
Answer: 3.3 log10 PFU/ml

Question: What about the “Titer of HSV-1” value ([3]; 48 h, 100 μg/ml) of the same molecule?
Answer: 4.0 log10 PFU/ml

Question: What about the “Titer of HSV-1” value ([3]; 72 h, 100 μg/ml) of the same molecule?
Answer: 3.9 log10 PFU/ml

Question: What about the “Titer of VV” value (vaccinia virus (VV); 1 h, 100 μg/ml) of the same molecule?
Answer: 1.7 log10 PFU/ml

Question: What about the “Titer of VV” value (vaccinia virus (VV); 24 h, 100 μg/ml) of the same molecule?
Answer: 1.7 log10 PFU/ml

Question: And the “Titer of VV” value (vaccinia virus (VV); 48 h, 100 μg/ml)?
Answer: 1.2 log10 PFU/ml

Question: And the “Titer of VV” value (vaccinia virus (VV); 72 h, 100 μg/ml)?
Answer: 1.5 log10 PFU/ml

Question: What about the “MCC (minimal cytotoxic concentration)” value (PRK cells [5]) of the same molecule?
Answer: ≥ 100 µg/mL

Question: What about the “ID50 dUrd incorporation” value (PRK cells [6]; (3H-1',2')dUrd) of the same molecule?
Answer: 230 µg/mL

Question: And the “ID50 Leu incorporation” value (PRK cells [6]; (3H-4,5)Leu)?
Answer: > 400 µg/mL

Question: And the “ID50 Urd incorporation” value (PRK cells [6]; (3H-5)Urd)?
Answer: > 400 µg/mL

Question: And the “ID50 dThd incorporation” value (PRK cells [6]; (3H-methyl) dThd)?
Answer: 250 µg/mL
